In US20040024055A1, “Pharmaceutical composition containing the exract of saururus chinensis baill useful as an anticancer agent and a process for the preparation thereof” (priority 2000, published 2004):
Values joined by “and” are separate entries in the source; they are usually repeats but may differ in a detail not shown here. Identical values can stand only once.

Assays:
HS27 = assay: MTT analysis, cytotoxicity against normal cell line; assay type: cell-based, human; details: MTT, 48 hr
Hep-2 [1] = assay: MTT analysis, anticancer activity; assay type: cell-based, human; details: MTT, 48 hr
NIH-3T3 [2] = assay: MTT analysis, cytotoxicity against normal cell line; assay type: cell-based, mouse; details: MTT, 48 hr
HT-29 = assay: MTT analysis, anticancer activity; assay type: cell-based, human; details: MTT, 48 hr
HS683 = assay: MTT analysis, anticancer activity; assay type: cell-based, human; details: 48 hr
SK-MEL-28 [3] = assay: MTT analysis, anticancer activity; assay type: cell-based, human; details: 48 hr
SK-Hep-1 [4] = assay: Adhesion of cancer cell to Matri-Gel; assay type: cell-based, human
Experimental: (§1) After treating HNP-98701 on tissue culture plate coated with the matrices, cancer cell was attached thereupon. To be specific, 50 μl/ml of […], 2 μg/ml of laminin, 2 μg/ml of collagen and 2 μg/ml of gelatin were coated on the surface of 96-well microplate (Corning Co.) per well. After solidifying for 2 hr, HNP-98701 was added to each well and treated for 1 hr. […] After treating the substances for 1 hr, cancer cell was added to each cell, and it was cultured for 3 hr. […] After culturing these cell lines for 3 hr, they were centrifuged. After collecting biomass only, it was washed with distilled water or PBS buffer solution for three times. […] Then, absorbance was measured at 560-405 nm with automatic Eliza detector (Molecular […] Corp., USA). […] Each experiment was performed for three times repeatedly.

CHO = assay: MTT analysis, cytotoxicity against normal cell line; assay type: cell-based, Chinese hamster; details: MTT, 48 hr
KATO-III = assay: MTT analysis, anticancer activity; assay type: cell-based, human; details: MTT, 48 hr
MCF-7 = assay: MTT analysis, anticancer activity; assay type: cell-based, human; details: MTT, 48 hr
HT1080 = assay: MTT analysis, anticancer activity; assay type: cell-based, human; details: 48 hr
NIH-3T3 [5] = assay: Adhesion of cell to Gelatin; assay type: cell-based, mouse
Experimental: as §1

NIH-3T3 [6] = assay: Adhesion of cell to Laminin; assay type: cell-based, mouse
Experimental: as §1

A431 = assay: MTT analysis, anticancer activity; assay type: cell-based, human; details: 48 hr
SK-OV-3 = assay: MTT analysis, anticancer activity; assay type: cell-based, human; details: MTT, 48 hr
Hep-2 [7] = assay: Adhesion of cancer cell to Gelatin; assay type: cell-based, human
Experimental: as §1

SK-Hep-1 [8] = assay: Adhesion of cancer cell to Gelatin; assay type: cell-based, human
Experimental: as §1

SK-MEL-28 [9] = assay: Adhesion of cancer cell to Gelatin; assay type: cell-based, human
Experimental: as §1

BT-20 = assay: MTT analysis, anticancer activity; assay type: cell-based, human; details: 48 hr
[10] = system: DU-145 prostate cancer cell line; assay: MTT analysis, anticancer activity; assay type: cell-based, human; details: 48 hr
NIH-3T3 [11] = assay: Adhesion of cell to Matri-Gel; assay type: cell-based, mouse
Experimental: as §1

3T3-L1 = assay: MTT analysis, cytotoxicity against normal cell line; assay type: cell-based, mouse; details: MTT, 48 hr
HS-746T = assay: MTT analysis, anticancer activity; assay type: cell-based, human; details: MTT, 48 hr
LoVo = assay: MTT analysis, anticancer activity; assay type: cell-based, human; details: MTT, 48 hr
293 = assay: MTT analysis, cytotoxicity against normal cell line; assay type: cell-based, human; details: MTT, 48 hr
SK-N-SH = assay: MTT analysis, anticancer activity; assay type: cell-based, human; details: 48 hr
SK-BR-3 = assay: MTT analysis, anticancer activity; assay type: cell-based, human; details: 48 hr
Hep-2 [12] = assay: Adhesion of cancer cell to Collagen; assay type: cell-based, human
Experimental: as §1

SK-Hep-1 [13] = assay: Adhesion of cancer cell to Collagen; assay type: cell-based, human
Experimental: as §1

SK-MEL-28 [14] = assay: Adhesion of cancer cell to Collagen; assay type: cell-based, human
Experimental: as §1

ME-180 = assay: MTT analysis, anticancer activity; assay type: cell-based, human; details: MTT, 48 hr
CPAE = assay: MTT analysis, cytotoxicity against normal cell line; assay type: cell-based, bovine; details: MTT, 48 hr
NIH-3T3 [15] = assay: Adhesion of cell to Collagen; assay type: cell-based, mouse
Experimental: as §1

NCI-H69 = assay: MTT analysis, anticancer activity; assay type: cell-based, human; details: MTT, 48 hr
BT-549 = assay: MTT analysis, anticancer activity; assay type: cell-based, human; details: MTT, 48 hr
T98G = assay: MTT analysis, anticancer activity; assay type: cell-based, human; details: 48 hr
[16] = system: SK-Hep-1 liver cancer cell line; assay: MTT analysis, anticancer activity; assay type: cell-based, human; details: 48 hr
HeLa = assay: MTT analysis, anticancer activity; assay type: cell-based, human; details: 48 hr
[17] = system: PC-3 prostate cancer cell line; assay: MTT analysis, anticancer activity; assay type: cell-based, human; details: 48 hr
Experimental: To be specific, SK-Hep-1 cell, which is liver cancer cell line, was added to 96-well microplate (Falcon, USA) with the concentration of 3×10^5 cells/ml by 100 μl per well. Each extracted and separated substance dissolved in DMSO was added to the well by 100 μl for the final concentration to be from 50 μg/ml to 0.0244 μg/ml, with 200 μl of final volume. Each cell was cultured for 48 hr in a culture medium of 37° C. and 5% CO2. After cultivation, 20 μl of phosphate buffer solution containing 5 mg/ml of MTT (3-[4,5-dimethylthiazol-2-yl]-2,5-diphenyltetrazoliumbromide, Sigma Co.) reagent was added to each well, and then cultured for 4 hr. After taking 100 μl of supernant from each culture medium, 100 μl of 0.04N hydrochloric acid-isopropanol was added. After letting alone overnight, absorbance was measured at 560 nm using automatic Eliza detector (Molecular Divices Corp., USA). Anticancer activity of each extracted and separated substance was calculated from the absorbance value by Equation 1 and was expressed in terms of cell.
Average Existence Rate(%)=(Absorbance of Treated Group)/(Absorbance of Control Group)×100

HS-578T = assay: MTT analysis, anticancer activity; assay type: cell-based, human; details: MTT, 48 hr
T-47D = assay: MTT analysis, anticancer activity; assay type: cell-based, human; details: 48 hr
Hep-2 [18] = assay: Adhesion of cancer cell to Laminin; assay type: cell-based, human
Experimental: as §1

SK-Hep-1 [19] = assay: Adhesion of cancer cell to Laminin; assay type: cell-based, human
Experimental: as §1

SK-MEL-28 [20] = assay: Adhesion of cancer cell to Laminin; assay type: cell-based, human
Experimental: as §1

## N.N.[Cl][Pt][Cl] [Cisplatin]
HS27
  IC50 HS27: 1.7853 µg/mL
Hep-2 [1]
  IC50 Hep-2: 0.5518 µg/mL
NIH-3T3 [2]
  IC50 NIH-3T3: 1.9756 µg/mL
HT-29
  IC50 HT-29: 6.1224 µg/mL
HS683
  IC50 HS683: 0.2490 µg/mL
SK-MEL-28 [3]
  IC50 SK-MEL-28: 4.3157 µg/mL
SK-Hep-1 [4]; 0.5 μg/ml
  Adhesion SK-Hep-1 (%): 96.41%
SK-Hep-1 [4]; 5 μg/ml
  Adhesion SK-Hep-1 (%): 105.27%
SK-Hep-1 [4]; 50 μg/ml
  Adhesion SK-Hep-1 (%): 108.26%
CHO
  IC50 CHO: 2.8462 µg/mL
KATO-III
  IC50 KATO-III: 2.2875 µg/mL
MCF-7
  IC50 MCF-7: 2.9412 µg/mL
HT1080
  IC50 HT1080: 2.9512 µg/mL
NIH-3T3 [5]; 0.5 μg/ml
  Adhesion NIH-3T3 (%): 111.43%
NIH-3T3 [5]; 5 μg/ml
  Adhesion NIH-3T3 (%): 110.48%
NIH-3T3 [5]; 50 μg/ml
  Adhesion NIH-3T3 (%): 100.10%
NIH-3T3 [6]; 0.5 μg/ml
  Adhesion NIH-3T3 (%): 93.86%
NIH-3T3 [6]; 5 μg/ml
  Adhesion NIH-3T3 (%): 94.94%
NIH-3T3 [6]; 50 μg/ml
  Adhesion NIH-3T3 (%): 92.45%
A431
  IC50 A431: 0.4240 µg/mL
SK-OV-3
  IC50 SK-OV-3: 5.3442 µg/mL
Hep-2 [7]; 0.5 μg/ml
  Adhesion Hep-2 (%): 97.20%
Hep-2 [7]; 5 μg/ml
  Adhesion Hep-2 (%): 100.13%
Hep-2 [7]; 50 μg/ml
  Adhesion Hep-2 (%): 91.07%
SK-Hep-1 [8]; 0.5 μg/ml
  Adhesion SK-Hep-1 (%): 79.16%
SK-Hep-1 [8]; 5 μg/ml
  Adhesion SK-Hep-1 (%): 74.84%
SK-Hep-1 [8]; 50 μg/ml
  Adhesion SK-Hep-1 (%): 61.25%
SK-MEL-28 [9]; 0.5 μg/ml
  Adhesion SK-MEL-28 (%): 92.48%
SK-MEL-28 [9]; 5 μg/ml
  Adhesion SK-MEL-28 (%): 91.13%
SK-MEL-28 [9]; 50 μg/ml
  Adhesion SK-MEL-28 (%): 86.40%
BT-20
  IC50 BT-20: 1.4578 µg/mL
[10]
  IC50 DU-145: 3.0012 µg/mL
NIH-3T3 [11]; 0.5 μg/ml
  Adhesion NIH-3T3 (%): 105.67%
NIH-3T3 [11]; 5 μg/ml
  Adhesion NIH-3T3 (%): 102.40%
NIH-3T3 [11]; 50 μg/ml
  Adhesion NIH-3T3 (%): 101.06%
3T3-L1
  IC50 3T3-L1: 2.7096 µg/mL
HS-746T
  IC50 HS-746T: 2.7680 µg/mL
LoVo
  IC50 LoVo: 0.7318 µg/mL
293
  IC50 293: 1.1678 µg/mL
SK-N-SH
  IC50 SK-N-SH: 2.1178 µg/mL
SK-BR-3
  IC50 SK-BR-3: 1.1748 µg/mL
Hep-2 [12]; 0.5 μg/ml
  Adhesion Hep-2 (%): 92.23%
Hep-2 [12]; 5 μg/ml
  Adhesion Hep-2 (%): 89.35%
Hep-2 [12]; 50 μg/ml
  Adhesion Hep-2 (%): 82.83%
SK-Hep-1 [13]; 0.5 μg/ml
  Adhesion SK-Hep-1 (%): 104.22%
SK-Hep-1 [13]; 5 μg/ml
  Adhesion SK-Hep-1 (%): 104.57%
SK-Hep-1 [13]; 50 μg/ml
  Adhesion SK-Hep-1 (%): 95.90%
SK-MEL-28 [14]; 0.5 μg/ml
  Adhesion SK-MEL-28 (%): 98.46%
SK-MEL-28 [14]; 5 μg/ml
  Adhesion SK-MEL-28 (%): 106.83%
SK-MEL-28 [14]; 50 μg/ml
  Adhesion SK-MEL-28 (%): 117.62%
ME-180
  IC50 ME-180: 0.9365 μg/ml
CPAE
  IC50 CPAE: 0.8252 µg/mL
NIH-3T3 [15]; 0.5 μg/ml
  Adhesion NIH-3T3 (%): 112.51%
NIH-3T3 [15]; 5 μg/ml
  Adhesion NIH-3T3 (%): 108.91%
NIH-3T3 [15]; 50 μg/ml
  Adhesion NIH-3T3 (%): 98.94%
NCI-H69
  IC50 NCI-H69: 0.6382 µg/mL
BT-549
  IC50 BT-549: 1.2522 µg/mL
T98G
  IC50 T98G: 7.9216 µg/mL
[16]
  IC50 SK-Hep-1: 5.4350 µg/mL and 4.2950 µg/mL
HeLa
  IC50 HeLa: 5.3358 µg/mL
[17]
  IC50 PC-3: 2.4867 µg/mL
HS-578T
  IC50 HS-578T: 2.3317 µg/mL
T-47D
  IC50 T-47D: 2.0468 µg/mL
Hep-2 [18]; 0.5 μg/ml
  Adhesion Hep-2 (%): 102.63%
Hep-2 [18]; 5 μg/ml
  Adhesion Hep-2 (%): 101.25%
Hep-2 [18]; 50 μg/ml
  Adhesion Hep-2 (%): 95.87%
SK-Hep-1 [19]; 0.5 μg/ml
  Adhesion SK-Hep-1 (%): 95.65%
SK-Hep-1 [19]; 5 μg/ml
  Adhesion SK-Hep-1 (%): 93.53%
SK-Hep-1 [19]; 50 μg/ml
  Adhesion SK-Hep-1 (%): 88.74%
SK-MEL-28 [20]; 0.5 μg/ml
  Adhesion SK-MEL-28 (%): 110.19%
SK-MEL-28 [20]; 5 μg/ml
  Adhesion SK-MEL-28 (%): 105.36%
SK-MEL-28 [20]; 50 μg/ml
  Adhesion SK-MEL-28 (%): 101.16%
